Here are results for 6 molecules from PubChem BioAssay (NCI).

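Each compound was tested at five concentrations against cells in 96-well plates for 48 hours. TGI: concentration producing complete growth inhibition.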

Test systems include A549 NSCLC; BT-549 breast; CCRF-CEM leukemia; DU-145 prostate; HL-60(TB) leukemia; HOP-62 NSCLC; HOP-92 NSCLC; HT29 colon; MDA-N; MOLT-4 leukemia; NCI-H460 lung; NCI/ADR-RES ovarian; OVCAR-3 ovarian; RPMI-8226 leukemia; SF-295 CNS; SN12C renal; SNB-19 CNS; SNB-75 CNS; SR leukemia; UO-31 renal.
What all share (assay): NCI-60 cell line screen, 48 h

As for `CC(=O)OCC1=C(C(=O)O)N2C(=O)C(NC(=O)CSc3ccncc3)C2SC1` (stereo not given), the TGI in the assay with A549 NSCLC, in the assay with BT-549 breast, in the assay with CCRF-CEM leukemia, in the assay with DU-145 prostate, with HL-60(TB) leukemia and in the assay on HOP-62 NSCLC was above 100 µM each time. For the same molecule, the TGI with HOP-92 NSCLC, with HT29 colon, with MDA-N, with MOLT-4 leukemia, with NCI-H460 lung and in the assay on NCI/ADR-RES ovarian was above 100 µM throughout. For the same molecule, the TGI with OVCAR-3 ovarian, with RPMI-8226 leukemia, with SF-295 CNS, in the assay on SN12C renal, with SNB-19 CNS and in the assay on SNB-75 CNS was above 100 µM each time. For the same molecule, the TGI in the assay on SR leukemia and in the assay with UO-31 renal was above 100 µM each time.
As for `CCN1CCC(O)(c2ccc(Oc3ccccc3)cc2)C(C(=O)c2ccc(Oc3ccccc3)cc2)C1` (stereo not given), the TGI in the assay with A549 NSCLC was determined as 27.5 µM; in the assay with BT-549 breast, 22.5 µM; in the assay with CCRF-CEM leukemia, 25.5 µM; in the assay on DU-145 prostate, 27.5 µM; with HL-60(TB) leukemia, 14.1 µM; in the assay with HOP-62 NSCLC, 25.3 µM. Further, the TGI worked out at 22.3 µM with HOP-92 NSCLC; 26.4 µM with HT29 colon; 26.7 µM in the assay with MDA-N; 32.1 µM in the assay on MOLT-4 leukemia; 13.2 µM in the assay on NCI-H460 lung; 35.1 µM in the assay on NCI/ADR-RES ovarian. The TGI in the assay on OVCAR-3 ovarian came to 31.9 µM; with RPMI-8226 leukemia it was 5.63 µM; with SF-295 CNS, 27.5 µM; in the assay on SN12C renal, 29.5 µM; in the assay on SNB-19 CNS, 32.6 µM; with SNB-75 CNS, 28.9 µM. For the same molecule, the TGI in the assay on SR leukemia is 24.8 µM; with UO-31 renal, 21.8 µM.
As to `O=[N+]([O-])c1c(F)c(F)c2c(c1F)Nc1ccccc1S2`, the TGI in the assay with A549 NSCLC turned out to be 36.9 µM; with BT-549 breast, 25.8 µM; in the assay with CCRF-CEM leukemia, 6.46 µM; with DU-145 prostate, 13.3 µM; with HL-60(TB) leukemia, 16.1 µM; with HOP-62 NSCLC it was 27.6 µM. Further, the TGI in the assay with HOP-92 NSCLC stood at 31 µM; in the assay with HT29 colon it was 3.63 µM; in the assay with MDA-N, 14.5 µM; with MOLT-4 leukemia it was 6.57 µM; with NCI-H460 lung, 41.8 µM; in the assay on NCI/ADR-RES ovarian it was 59.7 µM. The TGI in the assay on OVCAR-3 ovarian stood at 4.1 µM; in the assay on RPMI-8226 leukemia it was 27.2 µM; in the assay with SF-295 CNS, 34.2 µM; in the assay on SN12C renal it was 12.8 µM; in the assay on SNB-19 CNS, 19.2 µM; in the assay on SNB-75 CNS, 32.6 µM. The TGI turned out to be 5.61 µM with SR leukemia and 34 µM in the assay with UO-31 renal.
Regarding `c1ccc(-c2nnc(-c3ccccn3)c3c2C[C@@H]2C[C@@H]4Cc5c(-c6ccccn6)nnc(-c6ccccn6)c5[C@@H]4[C@H]32)nc1`, the TGI was above 100 µM with A549 NSCLC; above 100 µM in the assay with BT-549 breast; above 100 µM in the assay on CCRF-CEM leukemia; above 100 µM with DU-145 prostate; 58.8 µM in the assay with HL-60(TB) leukemia; above 100 µM in the assay with HOP-62 NSCLC. Also, the TGI is above 100 µM in the assay with HOP-92 NSCLC; above 100 µM in the assay with HT29 colon; above 100 µM in the assay with MDA-N; above 100 µM with MOLT-4 leukemia; 88 µM in the assay on NCI-H460 lung; above 100 µM in the assay with NCI/ADR-RES ovarian. For the same molecule, the TGI in the assay on OVCAR-3 ovarian, in the assay on RPMI-8226 leukemia, with SF-295 CNS, in the assay on SN12C renal, in the assay on SNB-19 CNS and in the assay on SNB-75 CNS was above 100 µM in each case. Further, the TGI with SR leukemia and in the assay with UO-31 renal was above 100 µM throughout.
For the molecule `CC[C@H](CCCC[C@H]1CC[C@@H]2CC(=O)C[C@H]12)OC`, the TGI in the assay with A549 NSCLC is above 100 µM; with BT-549 breast, above 100 µM; in the assay on CCRF-CEM leukemia, above 100 µM; with DU-145 prostate, above 100 µM; in the assay with HL-60(TB) leukemia, 67.8 µM; with HOP-62 NSCLC, above 100 µM. For the same molecule, the TGI in the assay on HOP-92 NSCLC, in the assay with HT29 colon, in the assay with MDA-N, in the assay with MOLT-4 leukemia, in the assay on NCI-H460 lung and in the assay on NCI/ADR-RES ovarian was above 100 µM in each case. Further, the TGI with OVCAR-3 ovarian, with RPMI-8226 leukemia, in the assay with SF-295 CNS, with SN12C renal, in the assay with SNB-19 CNS and in the assay with SNB-75 CNS was above 100 µM each time. For the same molecule, the TGI with SR leukemia and with UO-31 renal was above 100 µM in each case.
Regarding `O=C1C(N2CCN(c3ccccn3)CC2)=C(Cl)C(=O)c2ncccc21`, the TGI in the assay with A549 NSCLC is above 10 µM; in the assay on BT-549 breast, above 10 µM; in the assay on CCRF-CEM leukemia it was 6.28 µM; with DU-145 prostate it was above 10 µM; in the assay on HL-60(TB) leukemia it was 0.906 µM; in the assay on HOP-62 NSCLC, above 10 µM. In addition, the TGI in the assay with HOP-92 NSCLC is 2.94 µM; with HT29 colon, above 6.16 µM; in the assay with MDA-N, 3.08 µM; in the assay on MOLT-4 leukemia, 5.99 µM; in the assay with NCI-H460 lung it was above 10 µM; with NCI/ADR-RES ovarian, above 10 µM. Further, the TGI is 3.95 µM with OVCAR-3 ovarian; 1.87 µM in the assay on RPMI-8226 leukemia; above 10 µM with SF-295 CNS; 3.22 µM with SN12C renal; above 10 µM in the assay on SNB-19 CNS; above 10 µM with SNB-75 CNS. Moreover, the TGI was above 6.21 µM with SR leukemia and above 5.53 µM with UO-31 renal.
